Source: patent US10954538B2, “Enzymatic cyclization of homofarnesylic acid” (BASF SE, priority 2016, dated 2021)

Test system: Zm-SHC-1 (squalene-hopene cyclase, SEQ ID NO: 2)
Assay: Activity determination of the recombinant cyclase from E. coli LU15568 (conversion of homofarnesylic acid into sclareolide, GC)
Type: biochemical, Zymomonas mobilis
Conditions: E. coli LU15568 homogenate, pH 5.0, 37° C., 24 h, GC analysis
Experimental: Inoculated from a suitable 2 ml preculture, E. coli LU15568 was grown for 16 h at 37° C. in 20 ml LB-Amp/Spec/Cm ([…]), 0.1 mM IPTG, 0.5 g/l rhamnose in 100 ml Erlenmeyer flasks (with baffles), centrifuged at 5000*g/10 min and stored at 4° C. Protein extract was prepared by suspending the cell pellet in 15 ml disruption buffer (0.2 M Tris/HCl, 0.5 M EDTA, pH 8.0), 375 U benzonase (for example Novagen, 25 U/μL), 40 μL PMSF (100 mM, dissolved in i-PropOH), 0.8 g sucrose and approx. 0.5 mg of lysozyme. The reaction mixture was mixed and incubated on ice for 30 min. Thereafter, the mixture was frozen at −20° C.
After the reaction mixture had defrosted, it was made up to approx. 40 ml with distilled water and again incubated on ice for 30 min. […]
The conversion of homofarnesylic acid (1b) into sclareolide (3) can be determined with the following GC system:
• 0 min: 100° C. • 5° C./min to 200° C. • After 5 min: 30° C./min to 320° C. • thereafter constant • Duration of the method: 30 min Injector temperature: 280° C. Retention times (RT): • Homofarnesylic acid: peak 1 at 11.7 min, peak 2 at 12.1 min; • Sclareolide: approx. 13.5 min A calibration series, with the aid of which the concentration of unknown samples was determined, is established using authentic material (Sigma, catalog No.: 358002).

CC(C)=CCC/C(C)=C/CC/C(C)=C/CC(=O)O [Homofarnesylic acid, (3E,7E)-4,8,12-trimethyltrideca-3,7,11-trienoic acid]
conversion rate from the E,E isomer (20 mM homofarnesylic acid (E,E 74.93%)): 82.7% | conversion rate in total (20 mM homofarnesylic acid, sodium citrate buffer): 74.5%
